Measurements: ChEMBL document CHEMBL6127036, “Chaperoning system: Intriguing target to modulate the expression of CFTR in cystic fibrosis” (Eur J Med Chem, 2024)

Legend:
[1] = biological target: Cystic fibrosis transmembrane conductance regulator (Homo sapiens) (UniProt P13569); test: Inhibition of CFTR (unknown origin) at 10 uM relative to control
[2] = Inhibition of HSP70 (unknown origin) expressed in human HeLa cells; assay type: cell-based
[3] = biological target: Cystic fibrosis transmembrane conductance regulator (Homo sapiens) (UniProt P13569); test: Activation of human CFTR expressed in rat FRT cells at 30 uM relative to control; assay type: cell-based; conditions: filed as activator
[4] = test system: Cystic fibrosis transmembrane conductance regulator (Homo sapiens), P13569 [F508del]; test: Inhibition of CFTR F508del mutant (unknown origin) in FRT cells; assay type: cell-based
Sequence of Cystic fibrosis transmembrane conductance regulator (Homo sapiens), P13569 [F508del] (P13569 as listed by the source): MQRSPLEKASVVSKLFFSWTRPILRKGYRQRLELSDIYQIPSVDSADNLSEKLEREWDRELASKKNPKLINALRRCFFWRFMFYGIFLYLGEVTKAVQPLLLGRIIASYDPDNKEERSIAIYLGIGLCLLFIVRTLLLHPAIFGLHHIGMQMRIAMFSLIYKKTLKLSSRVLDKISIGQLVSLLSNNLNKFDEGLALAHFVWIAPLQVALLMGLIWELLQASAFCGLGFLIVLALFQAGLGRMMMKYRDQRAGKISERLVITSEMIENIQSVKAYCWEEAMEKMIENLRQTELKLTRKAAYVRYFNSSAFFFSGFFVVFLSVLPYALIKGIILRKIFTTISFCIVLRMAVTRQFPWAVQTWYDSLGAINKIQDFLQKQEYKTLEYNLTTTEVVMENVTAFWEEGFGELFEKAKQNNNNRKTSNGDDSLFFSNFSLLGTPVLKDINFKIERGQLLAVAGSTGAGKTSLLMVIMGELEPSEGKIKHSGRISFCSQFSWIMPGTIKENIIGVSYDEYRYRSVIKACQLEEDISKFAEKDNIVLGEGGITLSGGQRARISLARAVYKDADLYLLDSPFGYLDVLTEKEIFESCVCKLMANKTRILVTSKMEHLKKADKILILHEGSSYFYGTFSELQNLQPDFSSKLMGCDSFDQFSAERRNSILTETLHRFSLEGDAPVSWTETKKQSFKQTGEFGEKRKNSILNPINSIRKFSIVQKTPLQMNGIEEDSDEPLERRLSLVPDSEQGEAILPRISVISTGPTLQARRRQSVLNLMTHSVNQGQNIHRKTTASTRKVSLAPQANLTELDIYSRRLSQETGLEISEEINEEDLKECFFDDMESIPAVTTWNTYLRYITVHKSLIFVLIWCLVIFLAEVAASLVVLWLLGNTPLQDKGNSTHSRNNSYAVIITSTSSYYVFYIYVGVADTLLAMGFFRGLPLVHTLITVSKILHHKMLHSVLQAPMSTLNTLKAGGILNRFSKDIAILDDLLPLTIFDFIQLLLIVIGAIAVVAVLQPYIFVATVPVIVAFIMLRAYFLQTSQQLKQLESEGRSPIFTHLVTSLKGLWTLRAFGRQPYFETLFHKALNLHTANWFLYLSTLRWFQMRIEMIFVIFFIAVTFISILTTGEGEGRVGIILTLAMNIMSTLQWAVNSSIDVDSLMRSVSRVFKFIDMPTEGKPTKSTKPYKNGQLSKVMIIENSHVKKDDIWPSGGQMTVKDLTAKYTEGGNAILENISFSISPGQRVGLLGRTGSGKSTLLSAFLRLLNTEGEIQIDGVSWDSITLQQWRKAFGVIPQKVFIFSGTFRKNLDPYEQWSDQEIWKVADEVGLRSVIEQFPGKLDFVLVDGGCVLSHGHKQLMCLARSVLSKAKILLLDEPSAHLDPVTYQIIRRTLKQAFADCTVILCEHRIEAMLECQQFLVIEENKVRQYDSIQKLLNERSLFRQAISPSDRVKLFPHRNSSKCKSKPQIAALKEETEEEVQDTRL

Sequence of Cystic fibrosis transmembrane conductance regulator (Homo sapiens) (P13569 whole entry, looked up): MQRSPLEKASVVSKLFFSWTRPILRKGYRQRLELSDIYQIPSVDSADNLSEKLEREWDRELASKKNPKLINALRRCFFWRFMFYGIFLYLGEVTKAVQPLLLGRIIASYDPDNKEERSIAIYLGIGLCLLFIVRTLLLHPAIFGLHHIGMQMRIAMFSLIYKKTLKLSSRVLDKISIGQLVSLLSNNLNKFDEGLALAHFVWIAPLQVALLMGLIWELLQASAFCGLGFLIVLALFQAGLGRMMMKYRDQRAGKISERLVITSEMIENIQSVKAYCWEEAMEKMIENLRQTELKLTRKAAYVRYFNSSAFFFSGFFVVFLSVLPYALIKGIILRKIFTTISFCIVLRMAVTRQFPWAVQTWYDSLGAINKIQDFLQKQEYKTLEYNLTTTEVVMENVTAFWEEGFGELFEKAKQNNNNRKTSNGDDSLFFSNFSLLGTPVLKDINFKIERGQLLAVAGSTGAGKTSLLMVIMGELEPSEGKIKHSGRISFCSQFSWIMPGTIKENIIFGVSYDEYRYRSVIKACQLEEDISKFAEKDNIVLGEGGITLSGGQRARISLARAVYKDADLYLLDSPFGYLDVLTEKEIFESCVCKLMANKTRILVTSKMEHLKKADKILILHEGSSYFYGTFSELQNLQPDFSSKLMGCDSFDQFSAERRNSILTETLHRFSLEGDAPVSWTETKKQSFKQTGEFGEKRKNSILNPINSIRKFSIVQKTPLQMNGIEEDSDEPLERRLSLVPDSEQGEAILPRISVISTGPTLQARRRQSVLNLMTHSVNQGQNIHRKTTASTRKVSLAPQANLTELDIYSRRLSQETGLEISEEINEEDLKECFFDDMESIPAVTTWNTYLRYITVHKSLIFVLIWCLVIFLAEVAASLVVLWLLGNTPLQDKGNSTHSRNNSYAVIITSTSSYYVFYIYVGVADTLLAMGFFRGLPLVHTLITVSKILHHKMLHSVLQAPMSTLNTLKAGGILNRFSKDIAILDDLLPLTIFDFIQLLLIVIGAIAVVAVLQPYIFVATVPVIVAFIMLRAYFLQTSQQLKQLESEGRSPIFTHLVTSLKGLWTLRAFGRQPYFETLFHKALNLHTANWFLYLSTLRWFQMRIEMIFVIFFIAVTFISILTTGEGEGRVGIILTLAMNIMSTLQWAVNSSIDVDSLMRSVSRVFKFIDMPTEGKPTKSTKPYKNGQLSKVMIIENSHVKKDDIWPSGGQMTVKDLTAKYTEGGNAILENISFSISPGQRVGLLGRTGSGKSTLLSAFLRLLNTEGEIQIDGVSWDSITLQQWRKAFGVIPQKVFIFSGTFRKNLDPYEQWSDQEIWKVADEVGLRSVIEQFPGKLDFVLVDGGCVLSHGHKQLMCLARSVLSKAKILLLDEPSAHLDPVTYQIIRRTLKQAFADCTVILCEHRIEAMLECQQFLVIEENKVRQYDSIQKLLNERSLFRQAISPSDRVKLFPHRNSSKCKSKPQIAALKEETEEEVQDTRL

Row | Structure (SMILES) | EC50 [2] [µM] | fold change (FC) [4] | other results
1 | N#CC1=C(N)Oc2[nH]nc(-c3ccc(F)cc3)c2C1c1c[nH]nc1-c1ccc(F)cc1 (stereo unspecified) | – | – | inhibition [1]: 70%
2 | N=C(N)NCCCC[C@H](O)CC(=O)N[C@@H](O)C(=O)NCCCCNCCCN | 5.4 | – | –
3 | O=C1CCC[C@@H]2[C@H]3CCCN4CCC[C@@H](CN12)[C@@H]34 | – | – | Activity [3]: 53%
4 | N#CCc1nnc(-c2ccccn2)[nH]1 | – | 25 | –
5 | N=C(N)NCCCCCCC(=O)N[C@@H](O)C(=O)NCCCCNCCCN | 5.4 | – | –
6 | CCN(CC)c1ccc(N/N=C2\C(=O)C=Cc3ccccc32)cc1 | – | 15 | –
